# Patent publication US10435399B2, “HDAC6 inhibitory heterocyclic compound” (TAKEDA PHARMACEUTICAL COMPANY LIMITED, priority 2017, dated 2019)
# Target: T1, HDAC6 enzyme (Homo sapiens, UniProt Q9UBN7)
# T1 construct: transducing full length HDAC6 gene into Sf-9 insect cells; GST; purchased SignalChem; host or cells: Sf-9 insect cells
# T1 sequence (Q9UBN7 1-1215): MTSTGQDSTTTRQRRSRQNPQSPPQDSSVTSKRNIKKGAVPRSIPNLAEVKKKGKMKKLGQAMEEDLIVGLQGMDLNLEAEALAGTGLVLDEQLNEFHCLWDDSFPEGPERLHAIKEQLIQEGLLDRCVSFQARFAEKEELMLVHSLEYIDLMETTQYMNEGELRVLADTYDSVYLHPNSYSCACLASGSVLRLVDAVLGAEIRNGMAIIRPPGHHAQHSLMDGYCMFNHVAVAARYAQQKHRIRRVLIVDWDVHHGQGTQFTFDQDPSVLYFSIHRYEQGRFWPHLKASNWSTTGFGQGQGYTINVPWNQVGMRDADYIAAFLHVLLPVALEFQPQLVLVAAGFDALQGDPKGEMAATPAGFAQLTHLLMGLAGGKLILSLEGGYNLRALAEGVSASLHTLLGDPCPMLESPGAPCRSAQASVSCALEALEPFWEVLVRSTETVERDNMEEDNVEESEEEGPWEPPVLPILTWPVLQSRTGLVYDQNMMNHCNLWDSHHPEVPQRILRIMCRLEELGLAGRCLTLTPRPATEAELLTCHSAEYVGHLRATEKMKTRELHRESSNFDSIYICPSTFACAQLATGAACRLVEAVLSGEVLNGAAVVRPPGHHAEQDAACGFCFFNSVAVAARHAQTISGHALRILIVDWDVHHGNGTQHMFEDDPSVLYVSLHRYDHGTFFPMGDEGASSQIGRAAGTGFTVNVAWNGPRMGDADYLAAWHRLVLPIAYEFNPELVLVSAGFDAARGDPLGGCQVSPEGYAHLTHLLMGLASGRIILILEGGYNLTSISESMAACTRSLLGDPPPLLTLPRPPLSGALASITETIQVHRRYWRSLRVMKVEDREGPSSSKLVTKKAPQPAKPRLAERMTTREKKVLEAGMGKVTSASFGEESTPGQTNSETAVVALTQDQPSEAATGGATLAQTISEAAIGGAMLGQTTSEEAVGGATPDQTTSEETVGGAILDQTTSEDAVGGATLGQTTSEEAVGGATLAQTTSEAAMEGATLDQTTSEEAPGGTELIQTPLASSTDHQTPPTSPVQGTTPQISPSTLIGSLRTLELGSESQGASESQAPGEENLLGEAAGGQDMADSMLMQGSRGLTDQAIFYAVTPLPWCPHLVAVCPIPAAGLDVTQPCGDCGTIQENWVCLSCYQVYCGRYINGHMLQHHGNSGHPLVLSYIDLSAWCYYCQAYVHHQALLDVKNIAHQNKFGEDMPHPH
# Assay: HDAC6 enzyme inhibitory activity (HDAC-Glo I/II Assay kit)
# Type: biochemical
# Conditions: 10 μM; wells without enzyme = 100% inhibition
# Experimental: HDAC6 enzyme prepared by transducing full length HDAC6 gene into Sf-9 insect cells and purifying by GST affinity column were purchased from SignalChem. Using this enzyme, HDAC6 enzyme inhibitory activities of the compound of the present invention were evaluated. Enzymes were used after preserved at −70° C. HDAC6 enzyme inhibitory activity of the compound of the present invention was measured using HDAC-Glo™ I/II Assay kit (Promega) according to the following experimental method. The test compound diluted with assay buffer (24 mM Tris-HCl (pH 7.5), 1 mM MgCl2, 0.35 mM KCl, 135 mM NaCl, 0.6 mM Glutathione, 0.01% Tween-20) was added to a 384-well plate by each 2 μL. Then, HDAC6 enzyme solution diluted with assay buffer was added thereto by each 4 μL, and the plate was incubated at room temperature for 60 min. After incubated, HDAC substrate-Developer solution prepared according to Promega protocol attached to the assay kit was added to the 384-well plate by each 2 μL, and the enzyme reaction was started. After reacting at room temperature for 20 min, luminescence level was measured using plate reader Envision (PerkinElmer). The inhibitory activity of each compound of Example was calculated as a relative activity value when luminescence level in wells without enzyme is considered as 100% inhibition.
row,SMILES,HDAC6 inhibitory rate (%) (10 μM)
1,"O=C1c2cc(-c3nnc(C(F)F)o3)ccc2CN1[C@@H]1CCCC[C@H]1n1cccn1 (relative stereo) [Example 529, 6-(5-(difluoromethyl)-1,3,4-oxadiazol-2-yl)-2-((1R*,2R*)-2-(1H-pyrazol-1-yl)cyclohexyl)isoindolin-1-one (optical isomer)]",100

# Same assay, conditions: 10 μM; wells without enzyme = 100% inhibition; read-out: HDAC6 inhibitory rate (%) (10 μM)
row,SMILES,inhibition at 10 µM [%]
1,"O=C1c2cc(-c3nnc(C(F)F)o3)ccc2CN1[C@@H]1CCCC[C@H]1O [Example 220, 6-(5-(difluoromethyl)-1,3,4-oxadiazol-yl)-2-((1R,2R)-2-hydroxycyclohexyl)-isoindolin-1-one]",94
2,"O=C1c2cc(-c3nnc(C(F)F)o3)ccc2CN1Cc1ccccn1 [Example 60, 6-(5-(difluoromethyl)-1,3,4-oxadiazol-2-yl)-2-(pyridin-2-ylmethyl)isoindolin-1-one]",96
3,"O=C1c2cc(-c3nnc(C(F)F)o3)cnc2CN1[C@@H]1CCCC[C@H]1NC(=O)C1(F)CCC1 [Example 218, N-((1R,2R)-2-(3-(5-(difluoromethyl)-1,3,4-oxadiazol-2-yl)-5-oxo-5,7-dihydro-6H-pyrrolo[3,4-b]pyridin-6-yl)cyclohexyl)-1-fluorocyclobutanecarboxamide]",100
4,"O=C1c2cc(-c3nnc(C(F)F)o3)cc(F)c2CN1C[C@H]1CC(F)(F)CN1C(=O)C1CC1 [Example 422, 2-(((2R)-1-(cyclopropyl-carbonyl)-4,4-difluoro-pyrrolidin-2-yl)methyl)-6-(5-(difluoro-methyl)-1,3,4-oxadiazol-2-yl)-4-fluoroiso-indolin-1-one]",98
5,"N[C@@H]1CCCC[C@H]1N1Cc2ncc(-c3nnc(C(F)F)o3)cc2C1=O [Example 231, 6-((1R,2R)-2-aminocyclohexyl)-3-(5-(difluoromethyl)-1,3,4-oxadiazol-2-yl)-6,7-dihydro-5H-pyrrolo[3,4-b]pyridin-5-one]",98
6,"N[C@@H]1CCCC[C@H]1N1Cc2c(F)cc(-c3nnc(C(F)F)o3)cc2C1=O [Example 173, 2-((1R,2R)-2-aminocyclohexyl)-6-(5-(difluoromethyl)-1,3,4-oxadiazol-2-yl)-4-fluoroisoindolin-1-one]",91
7,"O=C1c2cc(-c3nnc(C(F)F)o3)cnc2CN1Cc1ccccc1F [Example 351, 3-(5-(difluoromethyl)-1,3,4-oxadiazol-2-yl)-6-(2-fluoro-benzyl)-6,7-dihydro-5H-pyrrolo[3,4-b]pyridin-5-one]",98
8,"O=C1CCCN1[C@@H]1COCC[C@H]1N1Cc2ccc(-c3nnc(C(F)F)o3)cc2C1=O [Example 1, 6-(5-(difluoromethyl)-1,3,4-oxadiazol-2-yl)-2-((3S,4R)-3-(2-oxopyrrolidin-1-yl)tetrahydro-2H-pyran-4-yl)isoindolin-1-one]",101
9,"CC(C)(C)OC(=O)N1CCC[C@@H]1CN1Cc2c(F)cc(-c3nnc(C(F)F)o3)cc2C1=O [Example 263, tert-butyl (2R)-2-((6-(5-(difluoromethyl)-1,3,4-oxadiazol-2-yl)-4-fluoro-1-oxo-1,3-dihydro-2H-isoindol-2-yl)methyl)-pyrrolidine-1-carboxylate]",99
10,"O=C1c2cc(-c3nnc(C(F)F)o3)ccc2CN1[C@@H]1CCOC[C@@H]1NC(=O)C(F)(F)C(F)(F)F [Example 418, N-((3R,4R)-4-(6-(5-(difluoro-methyl)-1,3,4-oxadiazol-2-yl)-1-oxo-1,3-dihydro-2H-isoindol-2-yl)tetrahydro-2H-pyran-3-yl)-2,2,3,3,3-pentafluoro-propanamide]",99
11,"O=C1c2cc(-c3nnc(C(F)F)o3)ccc2CN1[C@@H]1CCCC[C@@H]1NC(=O)C1(C(F)(F)F)CC1 [Example 259, N-((1S,2R)-2-(6-(5-(difluoro-methyl)-1,3,4-oxadiazol-2-yl)-1-oxo-1,3-dihydro-2H-isoindol-2-yl)cyclohexyl)-1-(trifluoromethyl)cyclopro-panecarboxamide]",101
12,"N#CC1(CC(=O)N[C@@H]2CCCC[C@H]2N2Cc3ccc(-c4nnc(C(F)F)o4)cc3C2=O)CC1 [Example 86, 2-(1-cyanocyclopropyl)-N-((1R,2R)-2-(6-(5-(difluoromethyl)-1,3,4-oxadiazol-2-yl)-1-oxo-1,3-dihydro-2H-isoindol-2-yl)cyclohexyl)acetamide]",96
13,"Cn1cc(C2CCC(F)(F)CC2)c(N2Cc3ccc(-c4nnc(C(F)F)o4)cc3C2=O)n1 [Example 480, 2-(4-(4,4-difluorocyclo-hexyl)-1-methyl-1H-pyrazol-3-yl)-6-(5-(difluoro-methyl)-1,3,4-oxadiazol-2-yl) isoindolin-1-one]",101
14,"O=C(OCc1ccccc1)C1CC(F)(F)CCN1N1Cc2ccc(-c3nnc(C(F)F)o3)cc2C1=O (stereo not shown) [Example 604, benzyl 1-(6-(5-(difluoromethyl)-1,3,4-oxadiazol-2-yl)-1-oxo-1,3-dihydro-2H-isoindol-2-yl)-4,4-difluoropiperidine-2-carboxylate]",98
15,"O=C1c2cc(-c3nnc(C(F)F)o3)ccc2CN1[C@@H]1CCC(F)(F)C[C@@H]1c1ccccn1 (relative stereo) [Example 590, 6-(5-(difluooromethyl)-1,3,4-oxadiazol-2-yl)-2-((1R*,2S*)-4,4-difluoro-2-(pyridin-2-yl)cyclohexyl)isoindolin-1-one (optical isomer)]",100
16,"O=C1c2cc(-c3nnc(C(F)F)o3)cnc2CN1[C@@H]1CCCC(F)(F)[C@H]1NC(=O)C(F)(F)C(F)(F)F [Example 599, N-((1S,6R)-6-(3-(5-(difluoromethyl)-1,3,4-oxadiazol-2-yl)-5-oxo-5,7-dihydro-6H-pyrrolo[3,4-b]pyridin-6-yl)-2,2-difluorocyclohexyl)-2,2,3,3,3-pentafluoropropanamide]",99
17,"O=C1c2cc(-c3nnc(C(F)F)o3)cnc2CN1[C@@H]1COCC[C@H]1Oc1ccccc1F [Example 647, 1,5-anhydro-2,4-dideoxy-2-(3-(5-(difluoromethyl)-1,3,4-oxadiazol-2-yl)-5-oxo-5,7-dihydro-6H-pyrrolo[3,4-b]pyridin-6-yl)-3-O-(2-fluorophenyl)-threo-pentitol (optical isomer)]",100
18,"C[C@H](c1ccc(F)cc1)N1Cc2ncc(-c3nnc(C(F)F)o3)cc2C1=O [Example 140, 3-(5-(difluoromethyl)-1,3,4-oxadiazol-2-yl)-6-((1R)-1-(4-fluorophenyl)ethyl)-6,7-dihydro-5H-pyrrolo[3,4-b]pyridin-5-one]",100
19,"CC(C)(C)OC(=O)N[C@H]1CCCC[C@H]1N1Cc2ccc(-c3nnc(C(F)F)o3)cc2C1=O [Example 255, tert-butyl ((1S,2R)-2-(6-(5-(difluoromethyl)-1,3,4-oxadiazol-2-yl)-1-oxo-1,3-dihydro-2H-isoindol-2-yl)cyclohexyl)carbamate]",100
20,"COc1cccc(CN2Cc3ncc(-c4nnc(C(F)F)o4)cc3C2=O)c1 [Example 266, 3-(5-(difluoromethyl)-1,3,4-oxadiazol-2-yl)-6-(3-methoxybenzyl)-6,7-dihydro-5H-pyrrolo[3,4-b]-pyridin-5-one]",99
21,"O=C(N[C@@H]1CCCC[C@H]1N1Cc2ccc(-c3nnc(C(F)F)o3)cc2C1=O)C1CCC(F)(F)CC1 [Example 102, N-((1R,2R)-2-(6-(5-(difluoromethyl)-1,3,4-oxadiazol-2-yl)-1-oxo-1,3-dihydro-2H-isoindol-2-yl)cyclohexyl)-4,4-difluorocyclohexanecarboxamide]",96
